Reference: the NIST ThermoML archive (doi:10.1016/j.jct.2014.06.004)

Assay: xn = mol fraction of the nth substance listed
Settings: 100 kPa, Liquid; for speed of sound: Frequency=3 MHz, Sing-around technique in a fixed-path interferometer; for mass density: Vibrating tube method

CCCCCCC(=O)O [heptanoic acid] + CCCC(=O)O
Settings	mass density, 293.15 K [kg/m3]	mass density, 298.15 K [kg/m3]	mass density, 303.15 K [kg/m3]	mass density, 308.15 K [kg/m3]	speed of sound, 293.15 K [m/s]	speed of sound, 298.15 K [m/s]	speed of sound, 303.15 K [m/s]	speed of sound, 308.15 K [m/s]
x1 = 0.0559	954.2	949.3	944.4	939.5	1203	1185	1166	1147
x1 = 0.1059	951.3	946.4	941.6	936.7	1209	1191	1172	1154
x1 = 0.2061	945.8	941	936.3	931.5	1222	1203	1185	1167
x1 = 0.3087	940.8	936.2	931.5	926.9	1233	1215	1197	1179
x1 = 0.4037	936.7	932.1	927.6	923	1244	1225	1207	1189
x1 = 0.5037	932.7	928.2	923.8	919.3	1254	1236	1217	1199
x1 = 0.6006	929.2	924.8	920.4	–	1263	1245	1227	1209
x1 = 0.7049	925.8	921.5	917.1	–	1272	1254	1236	1218
x1 = 0.805	922.8	918.5	914.2	–	1280	1263	1245	1227
x1 = 0.9052	920.1	915.9	911.6	–	1289	1271	1253	1235
x1 = 0.9575	918.7	914.5	910.3	–	1292	1275	1257	1239
x1 = 1	917.7	913.5	909.3	–	1295	1278	1260	1242
